Values after ≈ are worked out from the molar mass of the structure shown. Where two headings read alike, the source gives them in different places. One block for each compound: values may come before it.
Assays:
Type in all cases: physicochemical
[1] = Solubility of the active ingredient in comparable solvents (polar to nonpolar)
Method: These values are expressed in mg/ml and determined at a temperature of 25°C at 1 atm. In a preferred embodiment, also the solubility is determined in water-based systems having different pH's, or having different temperatures; and in water-based systems wherein co-solvents are present; and in stomach or intestinal media. Solubility information in a broad range of solvents (including oils, dichloromethane, methanol), is useful because the knowledge of in which type of solvents the active ingredient dissolves well, helps in designing a NADES with similar properties.

[2] = Solubility of the active ingredient in NADES; conditions: thermodynamic from solid
Method: Subsequently, selected constituents are weighed out in the appropriate molar ratios and corresponding masses and are added to a suitable receptacle, such as a small bottle or other small vessel. In the receptacle generally a stirring element is added, such as a stirring flea. If two or more solid constituents are present, these are generally heated, for instance to about 70°C. When at least one liquid constituent is present, it is generally not needed to heat the system to temperatures higher than about 50°C. The constituents are stirred. When two (or more) solid constituents are mixed, this often leads to high or very high viscosities, in which case addition of some water or other liquid excipients such as propylene glycol is recommended. The stirring is continued until a clear liquid is formed.
After a clear liquid is obtained, it is preferred to let it cool and sit for 24 hours or so, as a check for stability. If a NADES is not stable at RT (room temperature; in other words, if the eutectic point is higher than RT at the selected molar ratio), one can try adding additional constituents or trying a different molar ratio.
Once cooled, the pH of the system is measured. An acidic NADES will in general be good at solubilizing a basic active ingredient due to protonation and vice versa. The stability can also be influenced by the pH, where usually a range of pH values is given that results in the best stability.
Usually it is apparent within an hour whether or not a solvent is going to achieve any worthwhile solubility value. If the solute sticks to the side of the receptacle and/or floats on top, investigation into this solvent can be terminated. If the solute makes for a cloudy solution, further dilution may yield success.

[3] = Stability of the active ingredient (pH, storage)
Method: Suitable secondary criteria are for instance the absolute oral bioavailability, typically denoted as a percentage of the maximum bioavailability of 100% which is defined as the bioavailability of the intravenous formulation as measured in a living being such as those used in animal trials or in human trials. Bioavailability is measured as the AUC (Area Under Curve) of the plasma concentration of a drug collected over a certain period of time, which depends on the half-life of the drug. Another suitable criterion is the stability data (such as temperature sensibility and pH range of stability expressed in time units). This is expressed as a duration in days/months/years where the compound has not undergone unacceptable levels of degradation (<10%) in specific conditions e.g. low pH.

[4] = pKa of the active ingredient
From the text: Further, the analysis also at least involves determination of acidity/basicity of the compound by determining the pKa value by standard methods. In the case of previously analyzed compounds such information typically available in published literature.

[5] = Particle size of precipitate after about 100 fold dilution of the NADES:PPI formulation with intestinal medium (FaSSIF), optical microscopy
Method: All PPI's that are soluble at approximately a PPI to active ingredient ratio of 1 to 5 are selected for the next stage of testing. A small sample of for example 100 µl is taken from the NADES:PPI mixture and the appropriate mass of active ingredient is solubilized in the system as above. Each NADES: PPI: active ingredient sample is diluted approximately 100 fold with intestinal medium solutions e.g. Fast State Simulated Intestinal Fluid (FaSSIF). The system with the smallest particle size over a 2 hour period is determined to be the best performing formulation. The particle size is determined using visual inspection and optical microscopy.
The precipitant molecules should in this light have a size less than approximately 10/µm, preferably less than 5µm and ideally less than about 1µm. These sizes are measured at 10 minute intervals over a 2 hours period to analyse the crystal growth. The crystal sizes are monitored using an optical microscope in initial samples; yet are more accurately measured after 2 hours using a Malvern Mastersizer 3000 or similar particle sizing equipment.
Below are microscope images of formulations of flufenamic acid diluted with intestinal medium. The dilution is approximately similar to 1ml of formulation being released into the intestine. The goal is to have sufficiently small particle sizes for a sufficiently long period of time to promote drug absorption. Figures 1, 2 and 3 show progressions in particle size of flufenamic acid in formulations designed using the present invention.
The following example is of a poorly water-soluble molecule, Paclitaxel, and the process of designing a system using the aforementioned invention. […] The second objective was to select one or more PPI's capable of controlling the size of precipitant upon an approximately 100 fold dilution with intestinal medium. The target dose of the formulation was 30mg/ml. The variation in particle size between formulations was analysed with visual inspection. The best performing formulations were compared with a size calibrated optical microscope and camera.

[6] = NADES, organic solvent or mixture, Choline Chloride: Propylene Glycol (1:3), pH 6.71

solubility in cyclohexane ([1]; cyclohexane): very low
solubility ([1]; dimethyl sulfoxide, 25 °C, organic solvent or mixture, read-out: solubility in dimethyl sulfoxide): > 50 mg/mL
solubility ([1]; ethanol, 25 °C, organic solvent or mixture, read-out: solubility in ethanol): > 50 mg/mL
solubility in hexane ([1]; hexane): very low
solubility in mineral oil (paraffin oil) ([1]; mineral oil (paraffin oil)): very low
Water solubility ([1]; water, 25°C and 1atm): very low
solubility ([1]; water, 25°C and 1atm, read-out: Water solubility): 0.009 mg/mL (≈ 0.032 mM)
solubility [2, 6]: 28 mg/mL (≈ 99.6 mM)
solubility ([2]; aqueous with cosolvent or surfactant or cyclodextrin, Choline chloride: Lactic acid: water (2:1:2), pH 2.19, polar NADES): < 1 mg/mL
solubility ([2]; organic solvent or mixture, Acetamide: Propylene Glycol (1:2), pH 6.47, basic NADES): 93.1 mg/mL (≈ 331 mM)
solubility ([2]; organic solvent or mixture, Acetamide: Propylene Glycol (1:3), pH 6.89, basic NADES): 50 mg/mL (≈ 178 mM)
solubility ([2]; organic solvent or mixture, Choline Chloride: Ethylene Glycol (1:3), pH 6.08, neutral NADES): 28 mg/mL (≈ 99.6 mM)
solubility ([2]; organic solvent or mixture, Choline chloride: glucose: butylene glycol (2:1:1), polar NADES): < 1 mg/mL
solubility ([2]; organic solvent or mixture, Sorbitol: Urea (1:1), pH 8.3, polar NADES): < 1 mg/mL
Stability ([3]; both acidic and basic aqueous solutions, period of 3 months at RT): stable
pKa ([4]; read-out: pKa): 3.65
Particle size result (microscope photograph, Fig. 2) ([5]; 28 mg/ml in choline chloride: propylene glycol (1:3) with 14 mg/ml Polyethylene Glycol-4000 solubilized in FaSSIF, 40x magnification): poor result
Particle size result (microscope photograph, Fig. 3) ([5]; 28 mg/ml in choline chloride: propylene glycol (1:3) with 56 mg/ml Polyethylene Glycol-4000 solubilized in FaSSIF, 40x magnification): good result
Compound: O=C(O)c1ccccc1Nc1cccc(C(F)(F)F)c1 [Flufenamic acid]

solubility ([1]; caster oil, 25 °C, oil or lipid, read-out: approximate solubility in caster oil): 15 to 20 mg/mL (≈ 17.6 to 23.4 mM)
solubility in ethanol ([1]; ethanol): 1.5 mg/mL (≈ 1.76 mM)
solubility ([1]; olive oil, 25 °C, oil or lipid, read-out: approximate solubility in olive oil): 15 to 20 mg/mL (≈ 17.6 to 23.4 mM)
solubility [2, 6]: 30 mg/mL (≈ 35.1 mM)
solubility ([2]; aqueous with cosolvent or surfactant or cyclodextrin, Malic acid: Beta alanine: Water (1:1:2), pH 3.43, acidic NADES): < 1 mg/mL
solubility ([2]; aqueous with cosolvent or surfactant or cyclodextrin, Sucrose: Glucose: Fructose: Water (1:1:1:8), pH 3.36, polar NADES): < 1 mg/mL
solubility ([2]; pH 9.8, aqueous with cosolvent or surfactant or cyclodextrin, Choline Chloride: Urea: Water (1:1:2), pH 9.80, polar NADES): < 1 mg/mL
pH range in which most stable [3]: 3-6 pH
Stability at basic pH ([3]; basic pH (8)): degrades quickly
pKa [4]: 11.9
pKa ([4]; read-out: pKa): 11.9
Particle size result (microscope photograph, Fig. 4) ([5]; 30 mg/ml in choline chloride: propylene glycol (1:3) with 30 mg/ml hypromellose acetate succinate solubilized in FaSSIF, 40x magnification): good result
Particle size, majority of observable particles (Fig. 4) ([5]; formulation diluted with intestinal medium, particles less than 1 µm not detected by optical microscopy): less than 10 µm
Compound: CC(=O)O[C@H]1C(=O)[C@@]2(C)[C@H]([C@H](OC(=O)c3ccccc3)[C@]3(O)C[C@H](OC(=O)[C@H](O)[C@@H](NC(=O)c4ccccc4)c4ccccc4)C(C)=C1C3(C)C)[C@]1(OC(C)=O)CO[C@@H]1C[C@@H]2O [Paclitaxel]
